Results: US20090182031A1, “Reduction of Hair Growth” (The Gillette Company, a Delaware corporation, priority 2004, published 2009)

System: human hair follicles
Assay: Human hair follicle growth assay
Type: cell-based
Details: for % Reduction (hair growth): versus control
Text: Human skin was obtained from a plastic surgeon as a by-product of face-lift procedures. The skin samples generally consisted of haired and non-haired regions taken from the area of the face. Immediately after removal, the skin was placed in Williams E medium containing antibiotics, and kept refrigerated. The Williams E medium was commercially obtained (Life Technologies, Gaithersburg, Md.), and has been formulated with essential nutrients for maintaining viability of hair follicle in an in-vitro environment.
Human hair follicles in growth phase (anagen) were isolated from face-lift tissue under a dissecting scope using a scalpel and watchmakers forceps. The skin was sliced into thin strips exposing 2-3 rows of follicles that could readily be dissected. Follicles were placed into 0.5 ml Williams E medium supplemented with 2 mM L-glutamine, 10 ug/ml insulin, 10 ng/ml hydrocortisone, 100 units penicillin, 0.1 mg/ml streptomycin and 0.25 μg/ml amphotericin B. The follicles were incubated in 24 well plates (1 follicle/well) at 37° C. in an atmosphere of 5% CO2 and 95% air. Hair follicle images were taken in the 24-well plates under the dissecting scope under a power of 20×. Hair follicle lengths were measured on day 0 (day follicles were placed in culture) and again on day 6-7. In this system follicles appear to fully differentiate into a hair fiber and increase in length at a rate similar to the human, in vivo, rate of about 0.3 mm/day. For testing inhibitors of heat shock proteins, the inhibitors or anti-HSP antibody were included in the culture medium from time 0 and remained in the medium throughout the course of the experiment.

| SMILES | % Reduction (hair growth) (0.1 μM, day 0 to day 6) [%] | Length Increase (mm) (0.1 μM, follicle length day 6 minus day 0) | % Reduction (hair growth) (1 μM, day 0 to day 6) [%] | Length Increase (mm) (1 μM, follicle length day 6 minus day 0) | reduction of hair growth (submicromolar dose) | % Reduction (hair growth) (10 μM, day 0 to day 5) [%] | Length Increase (mm) (10 μM, follicle length day 5 minus day 0) | % Reduction (hair growth) (50 μM, day 0 to day 5) [%] | Length Increase (mm) (50 μM, follicle length day 5 minus day 0) |
| --- | --- | --- | --- | --- | --- | --- | --- | --- | --- |
| COC1=C2C[C@@H](C)C[C@H](OC)[C@H](O)[C@@H](C)/C=C(\C)[C@H](OC(N)=O)[C@@H](OC)/C=C\C=C(/C)C(=O)NC(=CC1=O)C2=O [Geldanamycin, 2-Azabicyclo[16.3.1]docosa-4,6,10,18,21-pentaene-3,20,22-trione, 9,13-dihydroxy-8,14,19-trimethoxy-4,10,12,16-tetramethyl-, 9-carbamate (8CI)] | 52 | 0.55 ± 0.13 | 74 | 0.30 ± 0.08 | over 50% | – | – | – | – |
| O=CN1CCC(=Cc2ccc3c(c2)OCO3)C1=O [KNK 437, 1-Pyrrolidinecarboxaldehyde, 3-(1,3-benzodioxol-5-ylmethylene)-2-oxo-(9CI)] | – | – | – | – | – | 57 | 0.75 ± 0.13 | 80 | 0.35 ± 0.12 |
